What was measured:
Type in all cases: cell-based
HTT mRNA [1] = experiment: Splicing RT-qPCR assay (THP), Table 2A; conditions: Table 2A (THP); for AC50: AJ mRNA increase, read-out: HTT AJ (increase in alternative junction mRNA, AC50); for IC50: CJ mRNA decrease, read-out: HTT CJ (decrease in canonical junction mRNA, IC50)
MYB mRNA [2] = experiment: Splicing RT-qPCR assay (THP), Table 2A; conditions: Table 2A (THP); for AC50: AJ mRNA increase, read-out: MYB AJ (increase in alternative junction mRNA, AC50); for IC50: CJ mRNA decrease, read-out: MYB CJ (decrease in canonical junction mRNA, IC50)
HTT mRNA [3] = experiment: Gene panel canonical junction qPCR assay, decrease in CJ mRNA, Table 3; conditions: decrease in canonical junction (CJ) mRNA, gene panel qPCR, Table 3
Summary of the method: (§1)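 IC50 denotes the concentration giving 50% decrease in canonical-junction mRNA, fitted by 4-parameter logistic to percentage response derived from ΔΔCt versus housekeeping gene and DMSO control. Cells (A673 or K562) exposed 24 h to 11-point 3-fold serial dilutions from 10 uM top, DMSO ≤0.25%; junction-spanning primer/probe qPCR.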

MYB mRNA [4] = experiment: as above; conditions: decrease in canonical junction (CJ) mRNA, gene panel qPCR, Table 3
Summary of the method: as §1

SMN2 mRNA = experiment: as above; conditions: decrease in canonical junction (CJ) mRNA, gene panel qPCR, Table 3
Summary of the method: as §1

[5] = system: SH-SY5Y (human neuroblastoma) cells; experiment: Cell viability, Cell Titer Glo 2.0 assay; conditions: read-out: Viability SHSY5Y.3 GI50
Summary of the method: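 Viability was read by CellTiter-Glo 2.0 luminescence after a 72-hour compound exposure at 37° C. under 5% CO2. Cells were in IMDM plus 10% FBS containing 0.1% DMSO, and medium-only wells gave the blank.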

Row | Compound | AC50 (HTT mRNA [1]) [nM] | IC50 (HTT mRNA [1]) [nM] | AC50 (MYB mRNA [2]) [nM] | IC50 (MYB mRNA [2]) [nM] | IC50 (HTT mRNA [3]) [nM] | IC50 (MYB mRNA [4]) [nM] | IC50 (SMN2 mRNA) [nM] | GI50 [5] [nM]
1 | CN[C@H]1C[C@@H](C)N(c2ccc(C(=O)Nc3cc(F)c4nc(C)cn4c3)c3nn(C)cc23)C1 (single isomer, unassigned) [Compound 128] | 1000 to 10000 | 1000 to 10000 | 100 to 1000 | 100 to 1000 | 100 to 1000 | 100 to 1000 | < 100 | 1000 to 10000
2 | CN[C@H]1CCN(c2ccc(C(=O)Nc3cc(F)c4nc(C)cn4c3)c3nn(C)cc23)[C@H]1C (single isomer, unassigned) [Compound 152] | > 10000 | > 10000 | > 10000 | 1000 to 10000 | > 10000 | 1000 to 10000 | 100 to 1000 | > 10000
3 | CN[C@@H]1CCN(c2ccc(C(=O)Nc3cc(F)c4nc(C)cn4c3)c3nn(C)cc23)[C@@H]1C (single isomer, unassigned) [Compound 153] | 100 to 1000 | 100 to 1000 | < 100 | < 100 | 100 to 1000 | < 100 | < 100 | 100 to 1000
4 | CN[C@H]1CCN(c2ccc(C(=O)Nc3cc(F)c4nc(C)cn4c3)c3nn(C)cc23)[C@@H]1C (single isomer, unassigned) [Compound 154] | > 10000 | > 10000 | 100 to 1000 | 1000 to 10000 | > 10000 | 100 to 1000 | < 100 | 100 to 1000
5 | COCCN[C@@H]1CCN(c2ccc(C(=O)Nc3cc(F)c4nc(C)cn4c3)c3nn(C)cc23)C1 [Compound 113, N-(8-fluoro-2-methyl-imidazo[1,2-a]pyridin-6-yl)-4-[(3R)-3-(2-methoxyethylamino)pyrrolidin-1-yl]-2-methyl-indazole-7-carboxamide] | > 10000 | > 10000 | 100 to 1000 | 100 to 1000 | > 10000 | 100 to 1000 | < 100 | 1000 to 10000
6 | COCC1(N[C@H]2CCN(c3ccc(C(=O)Nc4cc(F)c5nc(C)cn5c4)c4nn(C)cc34)C2)CC1 [Compound 118, (S)—N-(8-fluoro-2-methylimidazo[1,2-a]pyridin-6-yl)-4-(3-((1-(methoxymethyl)cyclopropyl)amino)pyrrolidin-1-yl)-2-methyl-2H-indazole-7-carboxamide] | > 10000 | > 10000 | 1000 to 10000 | 100 to 1000 | 1000 to 10000 | 1000 to 10000 | 100 to 1000 | > 10000
7 | COCC1(N[C@@H]2CCN(c3ccc(C(=O)Nc4cc(F)c5nc(C)cn5c4)c4nn(C)cc34)C2)CC1 [Compound 119, (R)—N-(8-fluoro-2-methylimidazo[1,2-a]pyridin-6-yl)-4-(3-((1-(methoxymethyl)cyclopropyl)amino)-pyrrolidin-1-yl)-2-methyl-2H-indazole-7-carboxamide] | > 10000 | > 10000 | 100 to 1000 | 100 to 1000 | 1000 to 10000 | 100 to 1000 | 100 to 1000 | 1000 to 10000
8 | CN[C@@H]1C[C@@H](C)N(c2ccc(C(=O)Nc3cc(F)c4nc(C)cn4c3)c3nn(C)cc23)C1 [Compound 129, N-(8-fluoro-2-methyl-imidazo[1,2-a]pyridin-6-yl)-2-methyl-4-[(2R,4R)-2-methyl-4-(methylamino)pyrrol-idin-1-yl]indazole-7-carboxamide] | 1000 to 10000 | 1000 to 10000 | 100 to 1000 | < 100 | 1000 to 10000 | 100 to 1000 | < 100 | 1000 to 10000
9 | CCN[C@@H]1CCN(c2cc(O)c(C(=O)Nc3cc(F)c4nc(C)cn4c3)c3nn(C)cc23)C1 [Compound 144, 4-[3-(ethylamino)pyrrolidin-1-yl]-N-(8-fluoro-2-methyl-imidazo[1,2-a]pyridin-6-yl)-6-hydroxy-2-methyl-indazole-7-carboxamide] | > 10000 | > 10000 | < 100 | < 100 | > 10000 | < 100 | < 100 | 100 to 1000
10 | CN[C@H]1CCN(c2c(O)cc(C(=O)Nc3cc(F)c4nc(C)cn4c3)c3nn(C)cc23)C1 [Compound 149, N-(8-fluoro-2-methyl-imidazo[1,2-a]pyridin-6-yl)-5-hydroxy-2-methyl-4-[(3S)-3-(methylamino)pyrrolidin-1-yl]-indazole-7-carboxamide] | > 10000 | > 10000 | > 10000 | 1000 to 10000 | 1000 to 10000 | 1000 to 10000 | 100 to 1000 | 1000 to 10000
11 | CN[C@@H]1CCN(c2ccc(C(=O)Nc3cc(F)c4nc(C)cn4c3)c3nn(C)cc23)[C@H]1C [Compound 155, N-(8-fluoro-2-methylimidazo-[1,2-a]pyridin-6-yl)-2-methyl-4-[(2S,3R)-2-methyl-3-(methylamino)-pyrrolidin-1-yl]indazole-7-carboxamide] | > 10000 | > 10000 | 1000 to 10000 | > 10000 | > 10000 | 1000 to 10000 | 1000 to 10000 | 100 to 1000
12 | Cc1cn2cc(NC(=O)c3c(F)cc(N4CC[C@H](NCC56CC(CO5)C6)C4)c4cn(C)nc34)cc(F)c2n1 [Compound 157, 6-fluoro-N-(8-fluoro-2-methyl-imidazo[1,2-a]pyridin-6-yl)-2-methyl-4-[(3S)-3-(2-oxabicyclo[2.1.1]hexan-1-ylmethylamino)pyrrolidin-1-yl]indazole-7-carboxamide] | > 10000 | > 10000 | < 100 | < 100 | > 10000 | 100 to 1000 | < 100 | 1000 to 10000
13 | CN[C@H]1CCN(c2ccc(C(=O)Nc3cc(F)c4nc(C)cn4c3)c3c2nnn3C)C1 [Compound 160, N-(8-fluoro-2-methyl-imidazo[1,2-a]pyridin-6-yl)-3-methyl-7-[(3S)-3-(methylamino)-pyrrolidin-1-yl]benzotriazole-4-carboxamide] | > 10000 | > 10000 | > 10000 | > 10000 | > 10000 | > 10000 | > 10000 | > 10000
14 | CN[C@H]1CCN(c2ccc(C(=O)Nc3cc(F)c4nc(C)cn4c3)c3nn(C)nc23)C1 [Compound 163, (S)-N-(8-fluoro-2-methylimidazo-[1,2-a]pyridin-6-yl)-2-methyl-7-(3-(methylamino)pyrrolidin-1-yl)-2H-benzo[d]-[1,2,3]triazole-4-carboxamide] | 1000 to 10000 | 100 to 1000 | 100 to 1000 | 1000 to 10000 | 100 to 1000 | 100 to 1000 | < 100 | 100 to 1000
15 | CN[C@H]1CCN(c2ccc(C(=O)Nc3cc(F)c4nc(C)cn4c3)c3nnn(C)c23)C1 [Compound 166, (S)-N-(8-fluoro-2-methylimidazo-[1,2-a]pyridin-6-yl)-1-methyl-7-(3-(methylamino)pyrrolidin-1-yl)-1H-benzo[d]-[1,2,3]triazole-4-carboxamide] | > 10000 | > 10000 | 100 to 1000 | 1000 to 10000 | > 10000 | 100 to 1000 | < 100 | 1000 to 10000
16 | CCNC1CCN(c2ccc(C(=O)Nc3cc(OC)c4nc(C)cn4c3)c3nn(C)cc23)CC1 [Compound 175, 4-(4-(ethylamino)piperidin-1-yl)-N-(8-methoxy-2-methyl-imidazo-[1,2-a]pyridin-6-yl)-2-methyl-2H-indazole-7-carboxamide] | 1000 to 10000 | 1000 to 10000 | < 100 | < 100 | 100 to 1000 | 100 to 1000 | < 100 | 1000 to 10000
17 | CCNC1CCN(c2ccc(C(=O)Nc3ccc4nc(C)cn4c3)c3nn(C)cc23)CC1 [Compound 176, 4-[4-(ethylamino)-1-piperidyl]-2-methyl-N-(2-methylimidazo[1,2-a]pyridin-6-yl)-indazole-7-carboxamide] | 1000 to 10000 | > 10000 | 100 to 1000 | 100 to 1000 | 1000 to 10000 | 100 to 1000 | < 100 | 100 to 1000
18 | CCNC1CCN(c2ccc(C(=O)Nc3cc(F)c4nc(C(C)C)cn4c3)c3nn(C)cc23)CC1 [Compound 177, 4-[4-(ethylamino)-1-piperidyl]-N-(8-fluoro-2-isopropyl-imidazo[1,2-a]pyridin-6-yl)-2-methyl-indazole-7-carboxamide] | > 10000 | > 10000 | > 10000 | 1000 to 10000 | 1000 to 10000 | > 10000 | > 10000 | 100 to 1000
19 | CCNC1CCN(c2ccc(C(=O)Nc3cc4cn(C)nc4cc3OC)c3[nH]ccc23)CC1 [Compound 178, 4-[4-(ethylamino)-1-piperidyl]-N-(6-methoxy-2-methyl-indazol-5-yl)-1H-indole-7-carboxamide] | > 10000 | > 10000 | > 10000 | > 10000 | > 10000 | > 10000 | 1000 to 10000 | 1000 to 10000

Reference: patent US20260285853A1, “COMPOUNDS AND METHODS FOR MODULATING SPLICING” (REMIX THERAPEUTICS INC., priority 2023, published 2026)
